Paper PMC3577726 (PLoS ONE, 2013)
No end group written: not given here.

Assays:
[1] = mouse, in vivo
Protocol: Serum OC concentrations were measured with ELISA kit for mouse OC (Biomedical Technologies), which is formulated for both ucOC and GlaOC, with the two forms being discriminated with the use of hydroxyapatite. Serum (50 µl) was thus mixed with 10 mg of hydroxyapatite (Sigma-Aldrich) and rotated at 4 °C for 1 h, after which the hydroxyapatite (and bound GlaOC) was removed by centrifugation and the supernatant was assayed for ucOC.
Figure 5 Serum levels of total OC and ucOC after intraperitoneal or oral administration of ucOC or GlaOC. Serum levels of total OC (A) or ucOC (B) were measured 20 min after administration of ucOC or GlaOC at a dose of 7 µg/kg intraperitoneally (i.p.) or 10 µg/kg orally (p.o.) in mice that had been deprived of food for 5 h; black circles indicate values for individual mice, with the horizontal bars representing the mean values. *P < 0.05 versus saline-treated animals [one-way ANOVA followed by either Dunnett's multiple-comparison test (A) or Tukey's HSD post hoc test (B)].

STC-1 cells = experiment: GLP-1 secretion from STC-1 cells (ELISA of culture supernatant); type: cell-based, mouse
Protocol: STC-1 cells (kindly provided from Dr. G. Tsujimoto, Kyoto University), a mouse enteroendocrine cell line were cultured under a humidified atmosphere of 5% CO2 at 37 °C in Dulbecco's modified Eagle's medium supplemented with 15% horse serum, 5% fetal bovine serum, penicillin (100 U/ml), and streptomycin (0.1 mg/ml). The cells were routinely passaged at 80 to 90% confluence.
STC-1 cells in a six-well plate were washed three times and then incubated with recombinant mouse ucOC or with GlaOC (ANA Spec, Fremont, CA) in Hanks' balanced salt solution for 60 min at 37 °C. The culture supernatants were then assayed for GLP-1 with ELISA kit (Shibayagi, Gunma, Japan).
Figure 2 OC-induced GLP-1 secretion in STC-1 cells. STC-1 cells were incubated for 60 min with vehicle (control) or the indicated concentrations of ucOC, GlaOC, or PMA. Data are expressed relative to the control value (33.1 pg per 1 × 10^5 cells) and are means ± SEM from four to eight independent experiments. *P < 0.05, **P < 0.01 versus control (Student's t test).

Male C57BL/6J mice [2] = experiment: Serum insulin concentration after intraperitoneal or oral treatment, with or without sitagliptin and exendin(9–39); type: in vivo, mouse; settings: for Serum insulin concentration, i.p. 7 µg/kg alone / Serum insulin concentration, oral 10 µg/kg: blood 20 min later; for Serum insulin concentration, i.p. 7 µg/kg alone: four to six mice; for Serum insulin concentration, oral 10 µg/kg: 10 µg/kg orally, with or without sitagliptin and exendin(9–39)
Protocol: (§1) Male C57BL/6J mice (Jackson Laboratory, Bar Harbor, ME) were maintained in a specific pathogen-free facility under a 12 h-light, 12 h-dark cycle and were moved to a conventional facility for experiments at 6 to 8 weeks of age. All animal experiments were approved by the animal ethics committee of Kyushu University. Animals were anesthetized with sevoflurane and blood (maximally up to 100 µl) was collected from the orbital plexus of mice treated as indicated. Dipeptidyl peptidase (DPP)-IV inhibitor (Merck-Millipore, Billerica, MA) was added to the samples to a final concentration of 100 µM.
(B, C) Mice deprived of food for 5 h (blood glucose level, 103.5 mg/dl) were administered sitagliptin (1 µg/kg) or saline orally and then 30 min later were treated with ucOC or GlaOC intraperitoneally (7 µg/kg) (B) or orally (10 µg/kg) (C) in combination with intraperitoneal injection of exendin(9–39) (25 nmol/kg) or saline. […] All data are means ± SEM for four to six mice. *P < 0.05, **P < 0.01, †P = 0.06 versus control (open bar) or for the indicated comparisons (Student's t test).

Male C57BL/6J mice [3] = system: Male C57BL/6J mice
Protocol: as §1

Male C57BL/6J mice [4] = experiment: Serum GLP-1 concentration after oral administration of OC; type: in vivo, mouse; settings: mice fasted 5 h, no sitagliptin pretreatment, blood 20 min later, five to seven mice
Protocol: (§2) Figure 3 Effect of intraperitoneal or oral administration of OC on serum GLP-1 concentration. (A) Mice were deprived of food for 5 h and then injected intraperitoneally with saline (control) or the indicated doses of recombinant ucOC, of GlaOC. Blood was collected 20 min later for determination of the serum concentration of GLP-1. Part of mice was orally administered with sitagliptin (1 µg/kg) 30 min before injection of OC. (B) Mice deprived of food for 5 h were treated orally with saline (control) or the indicated doses of ucOC or GlaOC. Blood samples collected 20 min later were assayed for serum GLP-1 concentration. All data are means ± SEM for five to seven mice. *P < 0.05, **P < 0.01 versus control (Student's t test).

Male C57BL/6J mice [5] = experiment: Serum GLP-1 concentration after intraperitoneal administration of OC; type: in vivo, mouse
Protocol: as §2

[6] = cited from earlier work
[7] = Absorption of 125I-labeled ucOC into the systemic circulation (blood radioactivity); type: in vivo, mouse; settings: n = 5 each
Protocol: An expression vector for a glutathione S-transferase-ucOC fusion protein was constructed by introduction of mouse OC cDNA into the vector pGEX-4T-1 (GE Healthcare, Buckinghamshire, UK). The fusion protein was produced in bacteria and purified with glutathione-Sepharose beads (GE Healthcare) according to standard procedures. The final washes of the beads were performed with a buffer containing 0.1% Triton X-114 (Sigma-Aldrich, St. Louis, MO) and then with the same buffer without detergent in order to remove endotoxin [17]. […] The purity of the ucOC preparation was assessed by sodium dodecyl sulfate-polyacrylamide gel electrophoresis with Tris-Tricine and staining with Coomassie blue, and the concentration and integrity of the protein were determined with an enzyme-linked immunosorbent assay (ELISA) kit for mouse OC (Biomedical Technologies, Stoughton, MA). […]
Figure 6 Absorption of ^125I-labeled ucOC into the systemic circulation. Mice were administered ^125I-labeled ucOC (5 µg/kg, 4,000 to 6,000 cpm) intraperitoneally (circles, n = 5) or orally (squares, n = 5), and blood was collected into tubes containing 5 mM EDTA (to prevent coagulation) at 30 and 60 min thereafter for measurement of radioactivity. The percentage of the administered radioactivity present in the circulation was calculated assuming a total blood volume of 2 ml. […]

Osteocalcin (YLGASVPSPDPLEPTREQCELNPACDELSDQYGLKTAYKRIYGITI; ends and bridges not checked; cysteine pairing not given here; UniProt P86546 50-95, looked up) [osteocalcin, a peptide composed of 46 amino acids; form (uc- or Gla-) not specified at the place]
Absorption rate at fivefold higher oral dose [1]: 0.8%
Absorption rate at twofold higher oral dose [1]: 2%

uncarboxylated osteocalcin (YLGASVPSPDPLEPTREQCELNPACDELSDQYGLKTAYKRIYGITI; ends and bridges not checked; cysteine pairing not given here; UniProt P86546 50-95, looked up) [ucOC, recombinant mouse uncarboxylated osteocalcin, cleaved from a glutathione S-transferase fusion protein produced in bacteria]
Effect on GLP-1 secretion at 30 ng/ml (STC-1 cells; 60 min, 30 ng/ml): no longer apparent
Effect on GLP-1 secretion at concentrations of >10 ng/ml (STC-1 cells; >10 ng/ml): markedly diminished
Serum insulin concentration, i.p. 7 µg/kg alone (Male C57BL/6J mice [2]; mice fasted 5 h, 7 µg/kg i.p.): significant increase
Serum insulin concentration, oral 10 µg/kg (Male C57BL/6J mice [2]; mice fasted 5 h): Essentially identical results
Serum insulin increase, i.p. 7 µg/kg with sitagliptin pretreatment (Male C57BL/6J mice [2]; oral sitagliptin 1 µg/kg 30 min before 7 µg/kg i.p.): enhanced by sitagliptin
Serum insulin increase, i.p. 7 µg/kg with sitagliptin and exendin(9–39) (Male C57BL/6J mice [2]; oral sitagliptin 1 µg/kg, 7 µg/kg i.p., exendin(9–39) 25 nmol/kg i.p.): abolished by exendin(9–39)
Serum concentration of GLP-1 at 30 min after i.v. injection (Male C57BL/6J mice [3]; 30 ng per animal, tail vein, mice fasted 5 h): further increased
Serum concentration of insulin after i.v. injection (Male C57BL/6J mice [3]; 30 ng per animal, tail vein, mice fasted 5 h, 15 and 30 min): increased as well
Serum concentration of GLP-1 at 15 min after i.v. injection (Male C57BL/6J mice [3]; 30 ng per animal, tail vein, mice fasted 5 h, four to six mice): significantly increased
Serum insulin concentration after i.v. 300 ng (Male C57BL/6J mice [3]; 300 ng per animal i.v., fasted mice, data not shown): no effect on the serum insulin concentration
Blood concentration after i.v. 300 ng (Male C57BL/6J mice [3]; mouse, in vivo, iv): 28 nM
Expected initial serum concentration after i.v. 30 ng (Male C57BL/6J mice [3]; mouse, in vivo, iv): ~30 ng/mL
Initial concentration in blood after i.v. 30 ng (Male C57BL/6J mice [3]; mouse, in vivo, iv): 2.7 nM
Serum GLP-1 concentration after oral administration (Male C57BL/6J mice [4]): increased the serum concentration of GLP-1 in a dose-dependent manner
Serum GLP-1 concentration, i.p., without sitagliptin (Male C57BL/6J mice [5]; mice fasted 5 h, blood 20 min after i.p. injection, no DPP-IV inhibitor pretreatment, five to seven mice): increase in the serum concentration of GLP-1, but with only statistically insignificance
Serum GLP-1 concentration, i.p. 7 µg/kg, sitagliptin-pretreated (Male C57BL/6J mice [5]; mice fasted 5 h, oral sitagliptin 1 µg/kg 30 min before, 7 µg/kg i.p., blood 20 min later): significant increase
Serum GLP-1 concentration, i.p. 10 µg/kg, sitagliptin-pretreated (Male C57BL/6J mice [5]; mice fasted 5 h, oral sitagliptin 1 µg/kg 30 min before, 10 µg/kg i.p., blood 20 min later): no such effect
Effect on GLP-1 secretion at intraperitoneal doses of >7 µg/kg (Male C57BL/6J mice [5]; mice, i.p. >7 µg/kg): markedly diminished

exendin(9–39) [reference compound]
Antagonism of the exendin-4-induced increase in serum insulin (Male C57BL/6J mice [2]; exendin(9–39) 25 nmol/kg i.p. 30 min before exendin-4 25 nmol/kg i.p.): sensitive to prior injection of exendin(9–39)
Effect of exendin(9–39) on the sitagliptin-induced increase in serum insulin (Male C57BL/6J mice [2]; sitagliptin orally, exendin(9–39) i.p., data not shown): blocked by administration of exendin(9–39)

calcitonin
Rate of absorption from the intestine into the bloodstream [6]: ~5%

^125I-labeled ucOC: ucOC iodinated with Na^125I as GST fusion, released with thrombin (YLGASVPSPDPLEPTREQCELNPACDELSDQYGLKTAYKRIYGITI; ends and bridges not checked; also: 125I label, site not given here; UniProt P86546 50-95, looked up)
Gross absorption, % of the administered radioactivity in the circulation at 30 min ([7]; 5 µg/kg (4,000 to 6,000 cpm) i.p. or orally, assuming total blood volume of 2 ml): 2 to 8%
Blood radioactivity at 60 min compared with 30 min ([7]; 5 µg/kg i.p. or orally): increased further or decreased to a small extent

N[C@@H](CC(=O)N1CCn2c(nnc2C(F)(F)F)C1)Cc1cc(F)c(F)cc1F [Sitagliptin, sitagliptin, reference compound]
Serum insulin concentration, sitagliptin alone (Male C57BL/6J mice [2]; mice fasted 5 h, sitagliptin 1 µg/kg orally): small increase in the serum insulin concentration

GlaOC: γ-carboxylated form of the bone-derived protein osteocalcin (ANA Spec) (YLGASVPSPDPLEPTREQCELNPACDELSDQYGLKTAYKRIYGITI; ends and bridges not checked; also: γ-carboxylated on three glutamic acid residues (places not given here); UniProt P86546 50-95, looked up)
Effect on GLP-1 secretion at the concentrations examined (STC-1 cells; 60 min): did not affect GLP-1 secretion
Serum insulin concentration, i.p. 7 µg/kg alone (Male C57BL/6J mice [2]; mice fasted 5 h, 7 µg/kg i.p.): no effect on serum insulin
Serum insulin concentration, oral 10 µg/kg (Male C57BL/6J mice [2]; mice fasted 5 h): tended to increase serum insulin, although this effect did not achieve statistical significance
Serum GLP-1 level after tail vein injection of GlaOC (Male C57BL/6J mice [3]; fasted mice, data not shown): no effect
Serum insulin level after tail vein injection of GlaOC (Male C57BL/6J mice [3]; fasted mice, data not shown): no effect
Serum GLP-1 concentration after oral administration (Male C57BL/6J mice [4]): a similar effect was apparent
Serum GLP-1 level, i.p., sitagliptin-pretreated mice (Male C57BL/6J mice [5]; mice fasted 5 h, oral sitagliptin 1 µg/kg 30 min before, i.p., blood 20 min later): did not increase the serum GLP-1 level
